# Tests used:
# NQF DNA = assay: Stop assay (inhibition of in vitro DNA synthesis) with NQF DNA; assay type: biochemical; conditions: 5 µM NQF DNA
# Procedure: The G-quadruplex structure forming region of QF oligonucleotide is shown in bold letters.
# To the PCR reaction mixture (25 µl) containing 10 mM Tris-HCl, pH 8.3, with 50 mM KCl, 1.5 mM Mg(OAc)2, 5 µM of each oligonucleotide, 1 mM dNTPs, 5 units of Taq polymerase, L1, L2, L3 were added at various concentrations (50 µM, 100 µM, 150 µM, 200 µM), and PCR reactions were performed. PCR mixture without any ligand was considered as control. The primers were 5′ end-labelled with [γ-^32P] ATP using 1 µl of polynucleotide kinase and 5 µl of 10× kinase buffer and the contents were incubated at 37°C for 5 min. Stop assay was performed using an ABI thermal cycler. Initial denaturation was done at 94°C for 3 min, followed by 20 repeated cycles each having 94°C for 30 sec, 58°C for 30 sec, and 72°C for 30 sec. After PCR, 5 µl of the amplified product was loaded on a 12% non-denaturing polyacrylamide gel with 1×TBE. The in vitro DNA synthetic band intensity was measured using Bio Rad Gel Doc XR+system (USA). The band intensity of the PCR product obtained with no ligand was taken as control for all the quadruplex forming DNA samples (QF DNA). Percentage of DNA synthesis inhibition was calculated using equation 1, whereas, inhibition constant, Ki (using Cheng-Prusoff equation) for each ligand was calculated by using equation 2. [drawing 2] (1)
# [1] = test system: dsDNA (poly-dA-dT and poly-dT-dA); assay: SYBR Green melting study with dsDNA; assay type: binding; conditions: 5 µM dsDNA, 1 µM ligand; dsDNA alone 24°C
# Procedure: When quadruplex DNA melts to form ssDNA structure, SG fluorescence intensity gradually reduces as SG has no binding to ssDNA. Each time, 5 µM of HQF DNA [d(T2AG3)4)], 5 µM of dsDNA (prepared by mixing equal concentration of poly-dA-dT and poly-dT-dA), 5 µM ssDNA ( poly dT alone) and 1 µM of each ligand was incubated at 4°C for 16 h, and used for melting studies. […] Affinity, stoichiometry and thermodynamic parameters for quadruplex-ligand complex were studied with 60 µM of ligand and 10 µM of HQF DNA using Microcal VP-ITC (Northampton, MA, USA). Ligand addition to G-quadruplex DNA was made every 180 seconds. Titration experiments were performed thrice and blank correction was made each time to minimize error.
smiles,measurement,setting,value
"Cc1cn([C@H]2C[C@H](n3cc(-c4ccc(Cl)cc4)nn3)[C@@H](CO)O2)c(=O)[nH]c1=O [Ligand L3, 1-(4-(4-(4-chlorophenly)-1H-1,2,3-triazole-1-yl)-5-(hydroxymethyl)tetrahydrofuran-2-yl)-5-methylpyrimidine-2,3(1H,3H)-dione]",inhibition of in vitro DNA synthesis with NQF DNA,NQF DNA,around 33%
same,Tm of dsDNA with ligand,[1],25 °C
